The record followed here is ChEMBL document CHEMBL4387741, “Optimization of novel reversible Bruton's tyrosine kinase inhibitors identified using Tethering-fragment-based screens” (Bioorg Med Chem, 2019).

Data set [1] has as its target RAC-beta serine/threonine-protein kinase (Homo sapiens) (UniProt P31751). The experiment in a line: Inhibition of wild-type human partial length AKT2 expressed in bacterial expression system at 10 uM by Kinomescan method relative to control.
For data set [2], the target named is Bone morphogenetic protein receptor type-1A (Homo sapiens) (UniProt P36894). Kind of data set: Inhibition of wild-type human partial length BMPR1A (Q214 to I532 residues) expressed in bacterial expression system at 10 uM by Kinomescan method relative to control.
The target of data set [3] is CDK4/Cyclin D3 (Homo sapiens) (UniProt P11802+P30281). Kind of data set: Inhibition of wild-type human full length CDK4/cyclinD3 (M1 to E303 residues) expressed in mammalian expression system at 10 uM by Kinomescan method relative to control.
For data set [4], the target named is Cyclin-dependent kinase 7 (Homo sapiens) (UniProt P50613). The experiment in a line: Inhibition of wild-type human full length CDK7 (M1 to L344 residues) expressed in mammalian expression system at 10 uM by Kinomescan method relative to control.
Data set [5] deals with Dual specificity protein kinase CLK3 (Homo sapiens) (UniProt P49761). The experiment in a line: Inhibition of wild-type human full length CLK3 (M1 to R490 residues) expressed in bacterial expression system at 10 uM by Kinomescan method relative to control.
For data set [6], the target named is Casein kinase I isoform gamma-2 (Homo sapiens) (UniProt P78368). The experiment in a line: Inhibition of wild-type human full length CSNK1G2 (M1 to K415 residues) expressed in bacterial expression system at 10 uM by Kinomescan method relative to control.
The subject of data set [7] is Epidermal growth factor receptor (Homo sapiens), P00533 [UNDEFINED MUTATION]. Kind of data set: Inhibition of human partial length EGFR L747-E749del/A750P mutant expressed in bacterial expression system at 10 uM by Kinomescan method relative to control.
The target in data set [8] is Homeodomain-interacting protein kinase 1 (Homo sapiens) (UniProt Q86Z02). Kind of data set: Inhibition of wild-type human partial length HIPK1 (M146 to I555 residues) expressed in mammalian expression system at 10 uM by Kinomescan method relative to control.
The target in data set [9] is Serine/threonine-protein kinase 10 (Homo sapiens) (UniProt O94804). Kind of data set: Inhibition of wild-type human partial length LOK (E16 to V314 residues) expressed in bacterial expression system at 10 uM by Kinomescan method relative to control.
In data set [10] the target is Mitogen-activated protein kinase kinase kinase 3 (Homo sapiens) (UniProt Q99759). The experiment in a line: Inhibition of wild-type human partial length MAP3K3 (E320 to Y626 residues) expressed in mammalian expression system at 10 uM by Kinomescan method relative to control.
Data set [11] has as its target Serine/threonine-protein kinase PAK 3 (Homo sapiens) (UniProt O75914). Kind of data set: Inhibition of wild-type human full length PAK3 (M1 to R544 residues) expressed in bacterial expression system at 10 uM by Kinomescan method relative to control.
Data set [12] has as its target Ribosomal protein S6 kinase alpha-5 (Homo sapiens) (UniProt O75582). Kind of data set: Inhibition of wild-type human partial length N-terminal RPS6KA5 kinase domain 1 expressed in bacterial expression system at 10 uM by Kinomescan method relative to control.
Data set [13] concerns the target Serine/threonine-protein kinase Sgk3 (Homo sapiens) (UniProt Q96BR1). The experiment in a line: Inhibition of wild-type human partial length SGK3 (M119 to L496 residues) expressed in mammalian expression system at 10 uM by Kinomescan method relative to control.
Data set [14] deals with Tyrosine-protein kinase ZAP-70 (Homo sapiens) (UniProt P43403). Kind of data set: Inhibition of wild-type human partial length ZAP70 (D20 to G299 residues) expressed in mammalian expression system at 10 uM by Kinomescan method relative to control.
Data set [15] in a line: Plasma clearance in Sprague-Dawley rat at 1 mg/kg, iv relative to hepatic blood flow. The note with it: in vivo. Format: ADME, organism-based.
For data set [16], the target named is Mitogen-activated protein kinase kinase kinase 6 (Homo sapiens) (UniProt O95382). Kind of data set: Inhibition of wild-type human partial length ASK2 (M278 to R972 residues) expressed in mammalian expression system at 1 uM by Kinomescan method relative to control.
Data set [17] has as its target Aurora kinase B (Homo sapiens) (UniProt Q96GD4). Kind of data set: Inhibition of wild-type human partial length AURKB (D25 to A303 residues) expressed in mammalian expression system at 1 uM by Kinomescan method relative to control.
Data set [18] deals with Aurora kinase C (Homo sapiens) (UniProt Q9UQB9). Kind of data set: Inhibition of wild-type human full length AURKC (M1 to S275 residues) expressed in bacterial expression system at 1 uM by Kinomescan method relative to control.
Data set [19] deals with Mitogen-activated protein kinase kinase kinase kinase 2 (Homo sapiens) (UniProt Q12851). The experiment in a line: Inhibition of wild-type human partial length MAP4K2 (M1 to G318 residues) expressed in mammalian expression system at 1 uM by Kinomescan method relative to control.
For data set [20], the target named is Maternal embryonic leucine zipper kinase (Homo sapiens) (UniProt Q14680). The experiment in a line: Inhibition of wild-type human full length MELK (M1 to V651 residues) expressed in bacterial expression system at 1 uM by Kinomescan method relative to control.
In data set [21] the target is Dual specificity mitogen-activated protein kinase kinase 7 (Homo sapiens) (UniProt O14733). Kind of data set: Inhibition of wild-type human full length MKK7 (M1 to R419 residues) expressed in mammalian expression system at 1 uM by Kinomescan method relative to control.
In data set [22] the test system is Phosphatidylinositol 4,5-bisphosphate 3-kinase catalytic subunit alpha isoform (Homo sapiens), P42336 [Q546K]. Kind of data set: Inhibition of human partial length PIK3CA Q546K mutant (R108 to N1068 residues) expressed in mammalian expression system at 1 uM by Kinomescan method relative to control.
Data set [23] has as its target Ribosomal protein S6 kinase alpha-5 (Homo sapiens) (UniProt O75582). The experiment in a line: Inhibition of wild-type human partial length N-terminal RPS6KA5 kinase domain 1 expressed in bacterial expression system at 1 uM by Kinomescan method relative to control.
Data set [24] concerns the target Mitogen-activated protein kinase kinase kinase 7 (Homo sapiens) (UniProt O43318). Kind of data set: Inhibition of wild-type human partial length TAK1 (M1 to Q303 residues) expressed in mammalian expression system at 1 uM by Kinomescan method relative to control.
Data set [25] concerns the target Serine/threonine-protein kinase tousled-like 2 (Homo sapiens) (UniProt Q86UE8). Kind of data set: Inhibition of wild-type human partial length TLK2 (E424 to N749 residues) expressed in bacterial expression system at 1 uM by Kinomescan method relative to control.
The target of data set [26] is Activated CDC42 kinase 1 (Homo sapiens) (UniProt Q07912). The experiment in a line: Inhibition of wild-type human partial length TNK2 (S159 to D474 residues) expressed in bacterial expression system at 1 uM by Kinomescan method relative to control.
Data set [27] deals with Serine/threonine-protein kinase ULK2 (Homo sapiens) (UniProt Q8IYT8). Kind of data set: Inhibition of wild-type human partial length ULK2 (M1 to S301 residues) expressed in mammalian expression system at 1 uM by Kinomescan method relative to control.
In data set [28] the target is Serine/threonine-protein kinase ULK3 (Homo sapiens) (UniProt Q6PHR2). The experiment in a line: Inhibition of wild-type human partial length ULK3 (M1 to Q290 residues) expressed in mammalian expression system at 1 uM by Kinomescan method relative to control.

By inhibition is commonly meant the percentage by which the read-out fell short of the control. Low values mean little suppression, high ones strong suppression.

Ribosomal protein S6 kinase alpha-5 (Homo sapiens), sequence (O75582 whole entry, looked up, the tested form may be a part): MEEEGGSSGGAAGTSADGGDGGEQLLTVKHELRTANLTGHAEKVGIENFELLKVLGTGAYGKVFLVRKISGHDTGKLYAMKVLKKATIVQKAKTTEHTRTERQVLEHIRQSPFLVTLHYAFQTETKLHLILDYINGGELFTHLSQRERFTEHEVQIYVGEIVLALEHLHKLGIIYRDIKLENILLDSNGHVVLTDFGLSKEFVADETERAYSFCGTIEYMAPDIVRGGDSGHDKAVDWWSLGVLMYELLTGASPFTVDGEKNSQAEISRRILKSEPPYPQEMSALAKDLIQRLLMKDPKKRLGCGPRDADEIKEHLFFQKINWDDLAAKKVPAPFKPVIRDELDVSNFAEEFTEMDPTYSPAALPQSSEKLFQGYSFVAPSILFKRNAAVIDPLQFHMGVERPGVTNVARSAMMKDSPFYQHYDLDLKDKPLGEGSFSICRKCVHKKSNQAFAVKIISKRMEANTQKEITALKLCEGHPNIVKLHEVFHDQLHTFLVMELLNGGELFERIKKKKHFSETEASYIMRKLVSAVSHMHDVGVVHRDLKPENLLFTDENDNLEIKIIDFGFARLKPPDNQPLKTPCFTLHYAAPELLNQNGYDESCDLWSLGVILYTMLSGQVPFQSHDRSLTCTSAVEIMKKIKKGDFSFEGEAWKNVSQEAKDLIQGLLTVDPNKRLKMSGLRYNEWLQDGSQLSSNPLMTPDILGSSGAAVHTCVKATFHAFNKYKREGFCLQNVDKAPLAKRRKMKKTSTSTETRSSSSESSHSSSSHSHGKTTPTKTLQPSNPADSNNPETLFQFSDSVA
Aurora kinase B (Homo sapiens), sequence (Q96GD4 whole entry, the tested form may be a part): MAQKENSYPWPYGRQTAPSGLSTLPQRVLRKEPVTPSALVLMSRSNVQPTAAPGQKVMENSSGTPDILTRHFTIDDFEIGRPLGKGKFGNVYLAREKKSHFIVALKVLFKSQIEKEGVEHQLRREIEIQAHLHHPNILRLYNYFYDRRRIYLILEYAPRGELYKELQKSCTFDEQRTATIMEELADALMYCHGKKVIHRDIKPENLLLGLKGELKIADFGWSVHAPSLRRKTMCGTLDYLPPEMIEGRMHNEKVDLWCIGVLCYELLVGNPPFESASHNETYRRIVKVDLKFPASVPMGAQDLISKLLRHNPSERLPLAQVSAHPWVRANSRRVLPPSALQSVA
Activated CDC42 kinase 1 (Homo sapiens), sequence (Q07912 whole entry, looked up, the tested form may be a part): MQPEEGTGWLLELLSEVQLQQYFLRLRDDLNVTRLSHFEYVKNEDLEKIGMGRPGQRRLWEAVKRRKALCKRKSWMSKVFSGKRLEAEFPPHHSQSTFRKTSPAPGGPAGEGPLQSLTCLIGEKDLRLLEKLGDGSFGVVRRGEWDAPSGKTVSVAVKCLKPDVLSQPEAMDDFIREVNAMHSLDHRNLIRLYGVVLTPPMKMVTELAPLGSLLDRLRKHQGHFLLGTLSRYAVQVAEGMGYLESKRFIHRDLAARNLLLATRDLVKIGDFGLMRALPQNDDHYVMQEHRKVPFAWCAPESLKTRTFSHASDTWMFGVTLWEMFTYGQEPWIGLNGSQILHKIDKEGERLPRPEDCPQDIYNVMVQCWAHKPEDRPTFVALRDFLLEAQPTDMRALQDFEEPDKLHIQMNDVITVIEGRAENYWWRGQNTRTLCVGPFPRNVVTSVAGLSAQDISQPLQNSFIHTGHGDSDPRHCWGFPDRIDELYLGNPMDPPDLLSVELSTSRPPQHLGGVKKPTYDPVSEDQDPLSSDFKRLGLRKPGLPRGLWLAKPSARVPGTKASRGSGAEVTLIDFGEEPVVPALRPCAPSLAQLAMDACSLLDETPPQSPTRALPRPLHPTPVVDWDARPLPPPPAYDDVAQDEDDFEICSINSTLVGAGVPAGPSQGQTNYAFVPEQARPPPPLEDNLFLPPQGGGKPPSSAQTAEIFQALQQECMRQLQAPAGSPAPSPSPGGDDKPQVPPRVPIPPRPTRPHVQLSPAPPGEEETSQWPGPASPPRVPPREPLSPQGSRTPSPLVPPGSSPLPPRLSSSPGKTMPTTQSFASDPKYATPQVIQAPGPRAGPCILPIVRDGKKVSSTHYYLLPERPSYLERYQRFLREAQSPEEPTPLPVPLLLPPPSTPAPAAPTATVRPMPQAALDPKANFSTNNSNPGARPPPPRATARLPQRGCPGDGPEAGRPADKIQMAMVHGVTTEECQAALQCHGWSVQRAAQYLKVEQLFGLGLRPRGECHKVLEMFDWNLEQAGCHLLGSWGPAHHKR
Dual specificity mitogen-activated protein kinase kinase 7 (Homo sapiens), sequence (O14733 whole entry, the tested form may be a part, canonical isoform): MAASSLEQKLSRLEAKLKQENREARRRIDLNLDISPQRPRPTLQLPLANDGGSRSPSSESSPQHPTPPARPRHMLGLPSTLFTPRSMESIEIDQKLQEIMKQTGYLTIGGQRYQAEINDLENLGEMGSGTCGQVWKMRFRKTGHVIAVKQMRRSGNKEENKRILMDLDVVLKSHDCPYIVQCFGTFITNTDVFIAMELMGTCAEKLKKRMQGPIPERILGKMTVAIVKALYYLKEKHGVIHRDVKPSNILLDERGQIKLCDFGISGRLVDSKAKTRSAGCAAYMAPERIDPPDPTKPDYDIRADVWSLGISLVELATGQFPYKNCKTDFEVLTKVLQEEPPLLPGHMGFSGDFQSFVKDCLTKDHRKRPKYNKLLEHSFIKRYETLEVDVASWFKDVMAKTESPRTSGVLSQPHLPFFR
Serine/threonine-protein kinase 10 (Homo sapiens), sequence (O94804 whole entry, looked up, the tested form may be a part): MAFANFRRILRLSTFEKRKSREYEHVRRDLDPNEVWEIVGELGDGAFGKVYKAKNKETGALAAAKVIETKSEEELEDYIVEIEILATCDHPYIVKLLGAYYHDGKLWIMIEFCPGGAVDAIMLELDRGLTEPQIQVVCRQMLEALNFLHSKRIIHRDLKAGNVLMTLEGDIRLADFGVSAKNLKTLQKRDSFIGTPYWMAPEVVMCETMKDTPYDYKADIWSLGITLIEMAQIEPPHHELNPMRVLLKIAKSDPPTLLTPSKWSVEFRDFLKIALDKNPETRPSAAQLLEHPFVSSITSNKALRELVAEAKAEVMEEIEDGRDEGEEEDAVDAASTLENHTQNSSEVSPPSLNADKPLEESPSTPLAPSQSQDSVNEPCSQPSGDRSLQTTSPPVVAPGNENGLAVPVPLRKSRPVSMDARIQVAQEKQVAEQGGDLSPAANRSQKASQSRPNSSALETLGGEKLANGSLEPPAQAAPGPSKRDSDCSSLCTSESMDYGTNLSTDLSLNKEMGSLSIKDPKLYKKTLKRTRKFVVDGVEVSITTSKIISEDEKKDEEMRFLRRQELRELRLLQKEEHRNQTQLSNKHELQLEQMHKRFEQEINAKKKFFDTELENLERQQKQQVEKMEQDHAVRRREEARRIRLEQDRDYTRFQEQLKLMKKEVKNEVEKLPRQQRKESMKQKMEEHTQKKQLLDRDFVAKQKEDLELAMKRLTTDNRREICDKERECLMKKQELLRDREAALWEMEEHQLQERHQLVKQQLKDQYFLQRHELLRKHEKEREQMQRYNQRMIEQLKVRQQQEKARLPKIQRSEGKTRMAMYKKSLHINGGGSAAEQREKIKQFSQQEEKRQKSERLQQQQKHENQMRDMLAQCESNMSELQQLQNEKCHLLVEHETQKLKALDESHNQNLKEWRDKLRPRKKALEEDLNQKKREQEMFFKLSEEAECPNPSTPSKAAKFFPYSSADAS
Bone morphogenetic protein receptor type-1A (Homo sapiens), sequence (P36894 whole entry, the tested form may be a part): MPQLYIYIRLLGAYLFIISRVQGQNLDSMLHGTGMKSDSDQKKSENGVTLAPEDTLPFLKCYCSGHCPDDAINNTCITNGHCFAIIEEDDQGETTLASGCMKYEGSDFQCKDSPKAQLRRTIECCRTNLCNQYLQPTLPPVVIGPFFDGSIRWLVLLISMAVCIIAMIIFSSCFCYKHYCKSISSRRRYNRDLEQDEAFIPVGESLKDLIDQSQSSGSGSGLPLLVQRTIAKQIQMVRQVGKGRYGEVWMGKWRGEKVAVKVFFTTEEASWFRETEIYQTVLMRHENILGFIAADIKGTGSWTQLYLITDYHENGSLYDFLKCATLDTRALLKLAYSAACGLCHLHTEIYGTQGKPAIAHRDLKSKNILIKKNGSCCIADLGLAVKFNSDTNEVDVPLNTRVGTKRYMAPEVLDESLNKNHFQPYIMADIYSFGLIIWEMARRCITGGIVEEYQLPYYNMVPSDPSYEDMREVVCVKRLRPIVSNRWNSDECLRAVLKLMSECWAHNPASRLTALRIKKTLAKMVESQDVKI
Serine/threonine-protein kinase Sgk3 (Homo sapiens), sequence (Q96BR1 whole entry, the tested form may be a part): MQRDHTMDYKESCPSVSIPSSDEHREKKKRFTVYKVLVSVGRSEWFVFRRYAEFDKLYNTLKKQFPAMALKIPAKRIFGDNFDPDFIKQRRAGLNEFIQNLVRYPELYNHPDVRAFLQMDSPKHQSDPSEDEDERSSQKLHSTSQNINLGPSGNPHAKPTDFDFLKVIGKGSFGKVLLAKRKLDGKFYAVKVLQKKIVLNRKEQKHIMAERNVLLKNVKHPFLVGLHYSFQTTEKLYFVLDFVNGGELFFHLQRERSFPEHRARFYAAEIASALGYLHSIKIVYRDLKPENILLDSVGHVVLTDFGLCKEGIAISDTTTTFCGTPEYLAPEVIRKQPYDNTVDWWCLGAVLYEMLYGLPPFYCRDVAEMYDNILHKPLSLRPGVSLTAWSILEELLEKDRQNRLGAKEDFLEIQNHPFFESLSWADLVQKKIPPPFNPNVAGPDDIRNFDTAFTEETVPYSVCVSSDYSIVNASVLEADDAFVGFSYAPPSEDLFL
Aurora kinase C (Homo sapiens), sequence (Q9UQB9 whole entry, the tested form may be a part): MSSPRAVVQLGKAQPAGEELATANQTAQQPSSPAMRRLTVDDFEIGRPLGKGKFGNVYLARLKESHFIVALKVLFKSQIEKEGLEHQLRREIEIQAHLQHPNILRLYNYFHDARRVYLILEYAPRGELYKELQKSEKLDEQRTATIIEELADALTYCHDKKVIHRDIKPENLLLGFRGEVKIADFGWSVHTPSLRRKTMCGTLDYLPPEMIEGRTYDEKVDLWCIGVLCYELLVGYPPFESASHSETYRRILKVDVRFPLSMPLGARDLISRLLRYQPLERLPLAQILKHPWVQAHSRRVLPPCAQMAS

Regarding `O=C(Nc1cccc([C@H]2CCCN(c3ncnc4[nH]ccc34)C2)c1)Nc1ccccc1N1CCCC1`, the inhibition came to 100% in [1]; 82% in data set [2]; 100% in [3]; 70% in data set [4]; 87% in data set [5]; 100% in data set [6]. Moreover, the inhibition in data set [7] was found to be 82%; in data set [8] it was 61%; in [9], 0.45%; in data set [10] it was 24%; in data set [11] it was 4.8%; in data set [12], 100%. The inhibition in [13] was 40%; in data set [14], 75%.
Molecule `O=C(Nc1cccc([C@@H]2CN(c3ncnc4[nH]ccc34)CCN2CCO)c1)Nc1c(F)cccc1N1CCCC1` returned a CL in data set [15] of 11%. The inhibition in [16] was 81%; in [17] it was 4.4%; in data set [18], 33%; in [19], 82%; in data set [20], 23%; in data set [21] it was 74%. For the same molecule, the inhibition in [22] worked out at 89%; in data set [23] it was 99%; in [24] it was 97%; in data set [25], 99%; in data set [26], 100%; in data set [27] it was 39%. The molecule further displayed an inhibition in data set [28] of 11%.
